Numbering of substitutions follows the chain as printed. In brackets after ≈: the same amount, converted by molar mass. Entries after “also recorded” stand apart in the source; their conditions may differ.
Legend:
PP5 = target: T1, PP5 (Rattus norvegicus, UniProt P53042); test: pNPP phosphatase assay with rat PP5; format: biochemical, R. norvegicus; settings: for fold activation: PP5 (R. norvegicus)
T1 construct: His tag (inferred from pET28 vector and HisTrap purification); made in house; host or cells: E. coli BL21-CodonPlus (DE3)-RIL
T1 sequence (P53042 1-499): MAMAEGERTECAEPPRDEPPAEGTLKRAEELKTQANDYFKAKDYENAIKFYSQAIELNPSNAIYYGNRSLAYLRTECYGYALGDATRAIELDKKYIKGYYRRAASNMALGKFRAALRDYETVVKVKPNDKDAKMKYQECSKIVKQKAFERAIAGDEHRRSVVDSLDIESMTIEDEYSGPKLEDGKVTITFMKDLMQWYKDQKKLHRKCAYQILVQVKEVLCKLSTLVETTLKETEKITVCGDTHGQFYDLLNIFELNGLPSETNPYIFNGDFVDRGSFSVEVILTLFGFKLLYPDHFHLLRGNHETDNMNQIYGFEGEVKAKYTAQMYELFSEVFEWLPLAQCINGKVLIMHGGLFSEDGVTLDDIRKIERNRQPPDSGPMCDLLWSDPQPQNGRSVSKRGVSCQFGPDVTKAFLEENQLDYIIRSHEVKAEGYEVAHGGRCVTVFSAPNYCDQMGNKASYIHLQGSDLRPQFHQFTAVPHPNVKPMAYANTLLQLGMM
Procedure: (§1) Phosphatase assays for characterization of PP5 and PPH-5 properties were performed in 40 mM HEPES/KOH, 20 mM KCl, 5 mM MnCl2, 1 mM DTT, pH 7.5 and 60 mM pNPP at 20°C if not indicated otherwise. Phosphatase concentrations ranged from 50 to 500 nM in the assay. If indicated, the CeHsp90/DAF-21 peptide AEEDASRMEEVD was supplemented in the assay at a concentration of 60 μM. […] These concentrations were 70 μM for P5SA-1, 140 μM for P5SA-2, 50 μM for P5SA-3, 100 μM for P5SA-4 and 45 μM for P5SA-5.

PPH-5 [1] = target: T2, PPH-5 (Caenorhabditis elegans, UniProt Q9NES8); test: pNPP phosphatase assay with nematode PPH-5; format: biochemical, C. elegans; settings: for kcat / fold activation: PPH-5 (C. elegans); for kcat: 60 mM pNPP, in presence of compound; for fold activation: based on kcat compared with PPH-5 basal activity; for activation of PPH-5 phosphatase activity: substances at 50 ng/ml, DMSO control
T2 construct: made in house
T2 sequence (Q9NES8 1-496): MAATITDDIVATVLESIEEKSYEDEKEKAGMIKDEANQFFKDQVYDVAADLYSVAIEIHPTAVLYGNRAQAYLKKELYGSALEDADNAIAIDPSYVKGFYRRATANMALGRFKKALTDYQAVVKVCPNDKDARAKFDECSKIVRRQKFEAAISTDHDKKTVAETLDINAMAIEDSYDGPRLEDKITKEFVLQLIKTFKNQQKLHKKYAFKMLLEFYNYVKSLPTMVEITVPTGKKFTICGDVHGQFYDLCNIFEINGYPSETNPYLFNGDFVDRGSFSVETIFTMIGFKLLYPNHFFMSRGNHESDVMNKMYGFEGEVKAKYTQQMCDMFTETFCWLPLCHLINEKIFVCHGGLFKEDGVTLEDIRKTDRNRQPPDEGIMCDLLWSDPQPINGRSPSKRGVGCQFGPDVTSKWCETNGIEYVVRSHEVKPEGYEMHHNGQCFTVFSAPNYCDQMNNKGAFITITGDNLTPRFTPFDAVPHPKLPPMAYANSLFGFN
Procedure: The compound library consisting of 10000 compounds (New Chemistry and Discovery Chemistry Collection, ChemDiv) was screened using a chromometric phosphatase assay with para-nitrophenyl phosphate (pNPP) as substrate. Phosphatase activity was determined by the conversion of pNPP to para-nitrophenole and absorption of the product at 410 nm (ε: 15100 cm^−1 M^−1). Assays were performed in 96-well plates in a PerkinElmer EnVision instrument with 50 nM of PPH-5. Reaction volume was 100 μl in a buffer of 40 mM HEPES, pH 7.5, 20 mM KCl, 5 mM MnCl2 and 1 mM DTT. The reaction was started by adding pNPP to a final concentration of 60 mM. The slope of the reaction was determined and deviations of >30% were considered potential hits leading to a collection of 76 initial compounds. […] These 76 compounds were maintained and rescreened individually in a Varian Cary 100 spectrophotometer (Agilent Technologies) in Hellma SUPRASIL precision quarz cells (10-mm path length) and 140 μl of reaction volumes. Finally, five compounds were obtained as reproducible activators and selected for further characterization.
as §1

physchem = format: physicochemical; settings: 20 °C, pH 7.5, aqueous buffer
Procedure: as §1

PP5 428–430/455–457 = target: T3, PP5 428–430/455–457 (Rattus norvegicus, UniProt P53042, E428A/K430A/M455A/N457A/V429A); test: pNPP phosphatase assay with PP5 428–430/455–457 mutant; format: biochemical; settings: compound at 100 μM
T3 construct: made in house; host or cells: E. coli BL21-CodonPlus (DE3)-RIL
T3 sequence (P53042 1-499 E428A/V429A/K430A/M455A/N457A): T1 sequence (P53042 1-499) with E428A, V429A, K430A, M455A, N457A
Procedure: (§2) Cloning and purification of PPH-5 (protein phosphatase homologue), CeHsp90/DAF-21 (abnormal DAuer formation), YFP-CeHsp90/DAF-21, BAG-1 (Bcl-2 associated athanogene-1), DNJ-13 (DNJ-13 homologue) and CeHsc70 (C. elegans heat shock cognate 70) were performed as described before. The human phosphatases PP1, PP2A and PP2B/PP3 were purified as described. The expression clones of rat PP5, PP5-ΔN165 (166–499) and PP5-ΔC8 (1–491) were generated by PCR and insertion of the DNA into the pET28 vector. Expression clones of PP5 428–430, which contains A^428-A^429-A^430 instead of E^428-V^429-K^430 and PP5 […], which contains A^428-A^429-A^430 instead of E^428-V^429-K^430 and A^455-G^456-A^457 instead of M^455-G^456-N^457, were also generated by PCR using primer sequences containing the modified codons. PCR-products were inserted into the pET28b expression plasmid (Merck) and verified by DNA sequencing (GATC Biotech). Proteins were expressed in BL21-CodonPlus (DE3)-RIL bacteria (Stratagene). Bacterial cultures were grown to a D600 of 0.8 and induced with 1 mM IPTG. Cells were disrupted using a cell disruption machine (IUL Instruments) and the lysate was loaded on to a HisTrap FF column (GE Healthcare). […] Protein purity was assessed by SDS/PAGE and the molecular mass was determined on an UltraFlex III MALDI-TOF/TOF mass spectrometer (Bruker). […]

PPH-5 [2] = target: T2, PPH-5; test: Relaxation-edited NMR binding to PPH-5; set-up: species or system C. elegans; settings: 10 μM PPH-5, phosphate buffer, 20°C, no substrate
Procedure: NMR experiments were performed on an 800 MHz spectrometer (Bruker) with cryoprobe. The measurements were done in ^2H2O with phosphate buffer (4 mM KH2PO4, 16 mM Na2HPO4, 120 mM NaCl, pH 7.4) and 1%–5% of d6-DMSO. P5SA-2 without protein was recorded in high sensitivity experiments with a high number of scans. The CPMG sequence with an additional Watergate to suppress residual water was used. The T2 filtering time was set to 400 ms to suppress signals from slowly tumbling molecules. Peak intensities were normalized by comparing residual DMSO peaks. PPH-5 was added as indicated.

PP5 428–430 = target: T4, PP5 428–430 (Rattus norvegicus, UniProt P53042, E428A/K430A/V429A); test: pNPP phosphatase assay with PP5 428–430 mutant; format: biochemical; settings: compound at 100 μM
T4 construct: made in house; host or cells: E. coli BL21-CodonPlus (DE3)-RIL
T4 sequence (P53042 1-499 E428A/V429A/K430A): T1 sequence (P53042 1-499) with E428A, V429A, K430A
Procedure: as §2

[3] = target: T5, PPH-5 - CeHsp90/DAF-21 complex (Caenorhabditis elegans, UniProt Q9NES8); test: Analytical ultracentrifugation of PPH-5/YFP-Hsp90 complex formation; format: binding, C. elegans; settings: peptide 60 μM
T5 construct: made in house
Procedure: Binding of Hsp90 to PPH-5 was analysed by analytical ultracentrifugation with fluorescence detection as described before. Experiments were performed in a Beckman ProteomeLab XL-A analytical ultracentrifuge (Beckman) equipped with an AU-FDS detector (Aviv Biomedical). Analytical ultracentrifugation (AUC) runs were performed in 40 mM HEPES/KOH, pH 7.5, 20 mM KCl, 1 mM DTT. The concentration of labelled YFP–Hsp90 was 300 nM and 3 μM of PPH-5 were added to form a complex with YFP–Hsp90. Where indicated 60 μM of the C-terminal Hsp90/DAF-21 peptide (AEEDASRMEEVD) was present in the sample. Centrifugation was performed at 20°C and 142000 g for 12 h. Scans were recorded every 90 s. Data analysis was performed using a dc/dt approach according to Stafford. The dc/dt plots were fit to Gaussian functions in order to obtain the s20,w values of the respective species as described previously. P5SAs were added as indicated.

Compound | fold activation (PP5; compound at 100 μM) | kcat (PPH-5 [1]) | fold activation (PPH-5 [1]) | activation of PPH-5 phosphatase activity (PPH-5 [1]) | solubility (physchem) | stimulation of PP5 428–430/455–457 (PP5 428–430/455–457) | direct binding to PPH-5 by NMR (PPH-5 [2]) | stimulation of PP5 428–430 (single-loop mutant) (PP5 428–430) | fold activation (PP5; compound at 30 μM (solubility limited)) | stimulation of full-length rat PP5 at lower concentration (PP5; compound at 10 μM) | influence of MEEVD-containing peptide on apparent affinity of activator (PPH-5 [1]; PPH-5, 60 μM MEEVD-containing peptide) | effect on complex formation between PPH-5 and YFP–Hsp90 ([3]; 300 nM YFP–Hsp90, 3 μM PPH-5, P5SAs at maximal soluble concentration) | sedimentation coefficient s20,w of YFP–Hsp90 with PPH-5 in presence of substance ([3]; complex without substance 8.9 S, YFP–Hsp90 alone 6.8 S)
FC(F)(F)c1c2c(nc3c(-c4ccc(Cl)cc4)cnn13)CCC2 [P5SA-1] | 4.1 | 2.28 ± 0.28 s⁻¹ | 3.7 | activate PPH-5 | 70 µM (≈ 23.6 µg/mL) | – | – | – | – | – | – | – | –
COc1ccc(-c2nc(Cc3ccc(Cl)cc3)no2)cc1OC [P5SA-2] | 3.9 | 1.99 ± 0.43 s⁻¹ | 3.2 | activate PPH-5 | 140 µM (≈ 46.3 µg/mL) | could not observe any stimulation | confirms binding of P5SA-2 to PPH-5 | no activation could be achieved | – | – | – | – | –
CN1CCc2c(sc(-n3cccc3)c2CNC(=O)NC23CC4CC(CC(C4)C2)C3)C1 [P5SA-3] | – | – | 4.0 | activate PPH-5 | 50 µM (≈ 21.2 µg/mL) | – | – | – | 2.9 | – | – | – | –
O=c1cc2nc(-c3ccc(F)cc3)nc(SCc3ccc(Br)cc3)n2[nH]1 [P5SA-4] | 3.0 | 4.85 ± 0.43 s⁻¹ | 7.8 | activate PPH-5 | 100 µM (≈ 43.1 µg/mL) | – | – | – | – | – | – | – | –
CNC(=O)c1c(NC(=O)COCC(=O)Nc2sc3c(c2C(=O)NC)CCC3)sc2c1CCC2 [P5SA-5] | 8.6 | 5.22 ± 0.67 s⁻¹ | 8.4 | activate PPH-5 | 45 µM (≈ 22.1 µg/mL) | could not detect stimulation; also recorded: did not stimulate the catalytic activity | – | did not stimulate the catalytic activity | – | effect at the lower concentration was detectable | only a minor influence on the apparent affinity | – | –
AEEDASRMEEVD [MEEVD peptide, C-terminal Hsp90/DAF-21 peptide from Biomatik, used as control to disrupt the PPH-5–Hsp90 complex] | – | – | – | – | – | – | – | – | – | – | – | complex formation is strongly reduced | 7.6 S

— article PMC4721540, “Selective activators of protein phosphatase 5 target the auto-inhibitory mechanism” (Bioscience Reports, 2015)
